Columns and labels:
Human δ-opioid (DOP) = target: T1, Human δ-opioid (DOP) (Homo sapiens, UniProt P41143); experiment: Radioligand binding, human δ-opioid (DOP) membranes, FlashPlate, [3H]-Bremazocine; details: compound at 10 μM; human δ-opioid (DOP) membranes
T1 construct: purchased Perkin Elmer Biosignal
Procedure, shortened: (§1)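 Cloned human receptor membranes were coated onto FlashPlate wells and incubated with radioligand and compound (added from a 0.5 mM DMSO daughter plate) for 1 hour at room temperature in the dark. Scintillation counting gave percent inhibition, with DMSO defining total and reference ligand defining non-specific binding.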

Human κ-Opioid (KOP) = target: T2, Human κ-Opioid (KOP) (Homo sapiens, UniProt P41145); experiment: Radioligand binding, human κ-opioid (KOP) membranes, filtration, [3H]-Diprenorphine; details: compound at 10 μM; human κ-opioid (KOP) membranes
T2 construct: purchased Perkin Elmer Biosignal
T2 sequence (P41145 whole entry): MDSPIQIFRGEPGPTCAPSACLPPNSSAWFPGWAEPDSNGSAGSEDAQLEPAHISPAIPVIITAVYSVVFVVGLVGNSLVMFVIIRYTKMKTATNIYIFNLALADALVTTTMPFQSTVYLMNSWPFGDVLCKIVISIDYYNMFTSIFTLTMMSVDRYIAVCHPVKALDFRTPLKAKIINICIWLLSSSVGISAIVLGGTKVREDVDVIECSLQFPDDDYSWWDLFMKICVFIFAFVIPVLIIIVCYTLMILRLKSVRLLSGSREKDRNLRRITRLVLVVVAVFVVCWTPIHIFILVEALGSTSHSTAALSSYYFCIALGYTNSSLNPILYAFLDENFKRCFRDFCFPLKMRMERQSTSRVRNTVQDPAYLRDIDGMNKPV
Procedure, shortened: (§2)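 Filtration binding on cloned human receptor membranes (1 Unit/well), [125I]-Substance P for NK1 and [3H]-Diprenorphine for KOP, 1 h at room temperature. Filters PEI-presoaked, washed with cold 50 mM Tris-HCl pH 7.4, counted by scintillation; percent inhibition calculated, reference ligand defining non-specific binding.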

Human Melanocortin (MC3) = target: T3, Human Melanocortin (MC3) (Homo sapiens, UniProt P41968); experiment: Radioligand binding, human melanocortin MC3 membranes, FlashPlate, [125I]-NDP-αMSH; details: compound at 10 μM; human melanocortin MC3 membranes
T3 construct: purchased Perkin Elmer Biosignal
T3 sequence (P41968 whole entry): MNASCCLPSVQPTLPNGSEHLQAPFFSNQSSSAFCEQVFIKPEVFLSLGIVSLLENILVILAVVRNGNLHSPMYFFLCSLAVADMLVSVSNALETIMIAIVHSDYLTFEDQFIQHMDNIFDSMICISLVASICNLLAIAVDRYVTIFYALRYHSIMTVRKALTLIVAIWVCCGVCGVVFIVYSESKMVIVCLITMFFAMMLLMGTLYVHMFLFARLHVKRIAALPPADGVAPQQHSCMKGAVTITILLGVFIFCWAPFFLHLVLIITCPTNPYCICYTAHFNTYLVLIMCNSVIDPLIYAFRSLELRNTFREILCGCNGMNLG
Procedure, shortened: as §1

Human Melanocortin (MC4) = target: T4, Human Melanocortin (MC4) (Homo sapiens, UniProt P32245); experiment: Radioligand binding, human melanocortin MC4 membranes, FlashPlate, [125I]-NDP-αMSH; details: compound at 10 μM; human melanocortin MC4 membranes
T4 construct: purchased Perkin Elmer Biosignal
T4 sequence (P32245 whole entry): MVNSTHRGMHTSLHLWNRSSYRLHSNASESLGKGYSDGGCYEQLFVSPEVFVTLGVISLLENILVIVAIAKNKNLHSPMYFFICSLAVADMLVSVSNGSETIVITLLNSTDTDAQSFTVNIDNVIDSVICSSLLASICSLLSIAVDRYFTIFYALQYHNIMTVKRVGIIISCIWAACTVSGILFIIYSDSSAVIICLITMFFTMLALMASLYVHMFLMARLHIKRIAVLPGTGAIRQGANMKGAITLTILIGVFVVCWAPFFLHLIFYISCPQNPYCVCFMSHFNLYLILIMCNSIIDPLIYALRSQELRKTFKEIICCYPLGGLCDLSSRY
Procedure, shortened: as §1

Human melanocortin (MC5) = target: T5, Human melanocortin (MC5) (Homo sapiens, UniProt P33032); experiment: Radioligand binding, human melanocortin MC5 membranes, FlashPlate, [125I]-NDP-αMSH; details: compound at 10 μM; human melanocortin MC5 membranes
T5 construct: purchased Perkin Elmer Biosignal
T5 sequence (P33032 whole entry): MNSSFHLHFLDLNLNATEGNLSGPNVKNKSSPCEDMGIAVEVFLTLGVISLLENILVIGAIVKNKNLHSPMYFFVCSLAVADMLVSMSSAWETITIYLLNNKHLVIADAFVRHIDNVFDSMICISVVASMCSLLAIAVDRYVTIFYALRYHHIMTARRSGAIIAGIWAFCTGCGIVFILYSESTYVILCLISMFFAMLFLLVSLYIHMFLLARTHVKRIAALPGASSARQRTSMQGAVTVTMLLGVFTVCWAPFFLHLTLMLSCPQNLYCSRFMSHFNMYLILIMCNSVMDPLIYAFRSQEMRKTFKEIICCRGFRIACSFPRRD
Procedure, shortened: as §1

[1] = target: T6, Human melanin-concentrating hormone (MCH1) (Homo sapiens, UniProt Q99705); experiment: Radioligand binding, human melanin-concentrating hormone MCH1 membranes, FlashPlate, [125I]-S36057; details: compound at 10 μM; human MCH1 membranes
T6 construct: purchased Perkin Elmer Biosignal
T6 sequence (Q99705 whole entry): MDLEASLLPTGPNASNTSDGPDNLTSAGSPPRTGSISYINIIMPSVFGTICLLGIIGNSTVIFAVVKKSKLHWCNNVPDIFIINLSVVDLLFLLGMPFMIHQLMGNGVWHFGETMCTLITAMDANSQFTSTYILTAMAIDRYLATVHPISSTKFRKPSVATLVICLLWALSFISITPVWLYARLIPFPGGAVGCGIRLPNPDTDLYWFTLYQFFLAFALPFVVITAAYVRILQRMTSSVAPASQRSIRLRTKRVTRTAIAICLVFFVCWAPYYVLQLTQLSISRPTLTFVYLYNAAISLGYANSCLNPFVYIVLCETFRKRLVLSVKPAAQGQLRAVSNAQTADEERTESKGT
Procedure, shortened: as §1

Human μ-opioid (MOP) = target: T7, Human μ-opioid (MOP) (Homo sapiens, UniProt P35372); experiment: Radioligand binding, human μ-opioid (MOP) membranes, FlashPlate, [3H]-Naloxone; details: compound at 10 μM; human μ-opioid (MOP) membranes
T7 construct: purchased Perkin Elmer Biosignal
T7 sequence (P35372 whole entry): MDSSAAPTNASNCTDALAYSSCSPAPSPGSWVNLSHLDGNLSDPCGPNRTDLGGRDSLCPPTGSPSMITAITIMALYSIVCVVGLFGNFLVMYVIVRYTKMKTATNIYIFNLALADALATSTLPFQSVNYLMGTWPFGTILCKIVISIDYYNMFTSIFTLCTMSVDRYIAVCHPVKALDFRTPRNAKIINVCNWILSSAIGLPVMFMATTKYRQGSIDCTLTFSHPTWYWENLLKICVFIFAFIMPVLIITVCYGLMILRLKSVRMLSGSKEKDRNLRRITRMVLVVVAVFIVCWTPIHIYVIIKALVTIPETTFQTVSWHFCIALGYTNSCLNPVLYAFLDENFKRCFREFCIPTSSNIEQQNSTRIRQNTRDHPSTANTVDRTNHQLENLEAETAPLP
Procedure, shortened: as §1

Human neurokinin (NK1) = target: T8, Human neurokinin (NK1) (Homo sapiens, UniProt P25103); experiment: Radioligand binding, human neurokinin NK1 membranes, filtration, [125I]-Substance P; details: compound at 10 μM; human neurokinin NK1 membranes
T8 construct: purchased Perkin Elmer Biosignal
T8 sequence (P25103 whole entry): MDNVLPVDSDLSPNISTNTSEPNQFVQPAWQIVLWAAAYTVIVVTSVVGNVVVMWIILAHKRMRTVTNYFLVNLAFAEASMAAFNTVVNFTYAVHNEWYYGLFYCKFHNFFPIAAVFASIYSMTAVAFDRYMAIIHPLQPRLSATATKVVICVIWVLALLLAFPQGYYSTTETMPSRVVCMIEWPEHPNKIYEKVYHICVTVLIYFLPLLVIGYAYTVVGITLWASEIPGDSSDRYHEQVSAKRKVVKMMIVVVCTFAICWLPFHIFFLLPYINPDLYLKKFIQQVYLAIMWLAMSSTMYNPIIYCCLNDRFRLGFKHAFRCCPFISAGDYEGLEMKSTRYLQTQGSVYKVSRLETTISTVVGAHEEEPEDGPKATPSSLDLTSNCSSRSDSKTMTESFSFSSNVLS
Procedure, shortened: as §2

[2] = target: T9, Human neuropeptide Y (NPY-Y1) (Homo sapiens, UniProt P25929); experiment: Radioligand binding, human neuropeptide Y NPY-Y1 membranes, FlashPlate, [125I]-PYY; details: compound at 10 μM; human NPY-Y1 membranes
T9 construct: purchased Perkin Elmer Biosignal
T9 sequence (P25929 1-384): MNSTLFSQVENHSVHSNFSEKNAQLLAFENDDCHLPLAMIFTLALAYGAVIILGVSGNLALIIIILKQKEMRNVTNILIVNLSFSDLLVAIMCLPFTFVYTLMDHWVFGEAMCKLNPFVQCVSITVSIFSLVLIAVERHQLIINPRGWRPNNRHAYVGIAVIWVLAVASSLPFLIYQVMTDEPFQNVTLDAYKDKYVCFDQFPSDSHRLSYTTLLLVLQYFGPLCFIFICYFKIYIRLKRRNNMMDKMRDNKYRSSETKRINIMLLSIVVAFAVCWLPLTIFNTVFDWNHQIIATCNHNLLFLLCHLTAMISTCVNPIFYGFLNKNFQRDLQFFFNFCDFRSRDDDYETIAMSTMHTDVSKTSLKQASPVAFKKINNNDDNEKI
Procedure, shortened: as §1

Human opioid (ORL1) = target: T10, Human opioid (ORL1) (Homo sapiens, UniProt P41146); experiment: Radioligand binding, human opioid ORL1 membranes, FlashPlate, [125I]-Nociceptin; details: compound at 10 μM; human ORL1 membranes
T10 construct: purchased Perkin Elmer Biosignal
T10 sequence (P41146 whole entry): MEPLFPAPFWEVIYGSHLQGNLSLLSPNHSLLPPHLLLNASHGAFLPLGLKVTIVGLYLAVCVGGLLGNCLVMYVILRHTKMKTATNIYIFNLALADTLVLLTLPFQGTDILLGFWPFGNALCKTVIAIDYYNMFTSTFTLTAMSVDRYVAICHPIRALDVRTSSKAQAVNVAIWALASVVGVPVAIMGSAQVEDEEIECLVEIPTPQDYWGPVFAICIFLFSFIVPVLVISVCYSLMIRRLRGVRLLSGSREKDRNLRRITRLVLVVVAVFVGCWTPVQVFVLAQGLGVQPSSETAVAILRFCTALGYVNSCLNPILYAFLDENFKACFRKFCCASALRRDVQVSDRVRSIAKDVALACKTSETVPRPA
Procedure, shortened: as §1

Mouse urotensin (mUR2) = target: T11, Mouse urotensin (mUR2) (Mus musculus, UniProt Q8VIH9); experiment: Radioligand binding, mouse urotensin mUR2 membranes, FlashPlate, [125I]-Urotensin II; details: compound at 10 μM; mouse urotensin mUR2 membranes
T11 construct: purchased Perkin Elmer Biosignal
T11 sequence (Q8VIH9 1-385): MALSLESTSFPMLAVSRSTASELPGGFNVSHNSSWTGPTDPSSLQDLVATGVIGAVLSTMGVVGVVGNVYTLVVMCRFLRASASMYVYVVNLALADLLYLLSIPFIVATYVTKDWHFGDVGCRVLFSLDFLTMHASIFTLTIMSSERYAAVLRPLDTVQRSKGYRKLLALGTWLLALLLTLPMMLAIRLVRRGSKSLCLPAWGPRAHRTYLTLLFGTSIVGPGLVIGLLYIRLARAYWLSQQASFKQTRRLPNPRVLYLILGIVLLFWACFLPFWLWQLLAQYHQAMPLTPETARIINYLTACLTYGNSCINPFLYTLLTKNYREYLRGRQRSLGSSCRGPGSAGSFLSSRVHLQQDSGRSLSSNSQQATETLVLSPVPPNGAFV
Procedure, shortened: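 Cloned mouse urotensin (mUR2) receptor membranes from Perkin Elmer Biosignal were immobilized in FlashPlate microplates using a proprietary coating. Each well got 19.5 μl buffer, then 0.5 μl of DMSO, reference ligand, or compound. Adding 5 μl of [125I]-Urotensin II, diluted to 5× final concentration in binding buffer, started binding. Plates were sealed with TopSeal-A and incubated 1 hour at room temperature in the dark. Wells were counted for 30 seconds each on a TopCount after a 60-second delay, and percentage inhibition was calculated.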

T1 sequence (P41143 whole entry): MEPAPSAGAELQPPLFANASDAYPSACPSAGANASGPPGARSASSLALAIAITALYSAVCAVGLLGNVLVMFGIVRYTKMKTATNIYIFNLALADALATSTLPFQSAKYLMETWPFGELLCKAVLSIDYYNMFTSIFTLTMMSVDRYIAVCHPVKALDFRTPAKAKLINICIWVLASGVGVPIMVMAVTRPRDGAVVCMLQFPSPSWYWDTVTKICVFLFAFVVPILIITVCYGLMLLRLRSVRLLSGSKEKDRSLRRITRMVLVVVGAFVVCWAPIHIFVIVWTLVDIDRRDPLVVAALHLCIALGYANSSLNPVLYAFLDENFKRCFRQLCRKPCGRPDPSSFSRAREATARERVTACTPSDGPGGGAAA

Row | SMILES | A1 radioligand binding inhibition (Human δ-opioid (DOP)) | A2 radioligand binding inhibition (Human κ-Opioid (KOP)) | A3 radioligand binding inhibition (Human Melanocortin (MC3)) | A4 radioligand binding inhibition (Human Melanocortin (MC4)) | A5 radioligand binding inhibition (Human melanocortin (MC5)) | A6 radioligand binding inhibition [1] | A7 radioligand binding inhibition (Human μ-opioid (MOP)) | A8 radioligand binding inhibition (Human neurokinin (NK1)) | A9 radioligand binding inhibition [2] | A10 radioligand binding inhibition (Human opioid (ORL1)) | A11 radioligand binding inhibition (Mouse urotensin (mUR2))
1 | COC[C@H]1OC(OCc2ccc(Cl)cc2)[C@H](NC(=O)CCNC(=N)N)[C@@H](OCc2ccccc2)[C@@H]1O (stereo partly drawn) [compound 34] | − (“−” indicates less than 50% inhibition at 10 μM) | − (“−” indicates less than 50% inhibition at 10 μM) | − (“−” indicates less than 50% inhibition at 10 μM) | − (“−” indicates less than 50% inhibition at 10 μM) | − (“−” indicates less than 50% inhibition at 10 μM) | − (“−” indicates less than 50% inhibition at 10 μM) | − (“−” indicates less than 50% inhibition at 10 μM) | + (“+” indicates greater than 50% inhibition at 10 μM) | − (“−” indicates less than 50% inhibition at 10 μM) | − (“−” indicates less than 50% inhibition at 10 μM) | − (“−” indicates less than 50% inhibition at 10 μM)
2 | COC[C@H]1OC(OCc2ccc(Cl)cc2)[C@H](NC(=O)CCCN)[C@@H](OCc2ccccc2)[C@@H]1O (stereo partly drawn) [compound 35] | − (“−” indicates less than 50% inhibition at 10 μM) | − (“−” indicates less than 50% inhibition at 10 μM) | − (“−” indicates less than 50% inhibition at 10 μM) | − (“−” indicates less than 50% inhibition at 10 μM) | − (“−” indicates less than 50% inhibition at 10 μM) | − (“−” indicates less than 50% inhibition at 10 μM) | − (“−” indicates less than 50% inhibition at 10 μM) | + (“+” indicates greater than 50% inhibition at 10 μM) | − (“−” indicates less than 50% inhibition at 10 μM) | − (“−” indicates less than 50% inhibition at 10 μM) | − (“−” indicates less than 50% inhibition at 10 μM)
3 | COC[C@H]1OC(OCc2ccc(Cl)cc2)[C@H](NC(=O)CCCNC(=N)N)[C@@H](OCc2ccccc2)[C@@H]1O (stereo partly drawn) [compound 36] | − (“−” indicates less than 50% inhibition at 10 μM) | − (“−” indicates less than 50% inhibition at 10 μM) | − (“−” indicates less than 50% inhibition at 10 μM) | − (“−” indicates less than 50% inhibition at 10 μM) | − (“−” indicates less than 50% inhibition at 10 μM) | − (“−” indicates less than 50% inhibition at 10 μM) | + (“+” indicates greater than 50% inhibition at 10 μM) | + (“+” indicates greater than 50% inhibition at 10 μM) | − (“−” indicates less than 50% inhibition at 10 μM) | − (“−” indicates less than 50% inhibition at 10 μM) | − (“−” indicates less than 50% inhibition at 10 μM)
4 | COC[C@H]1OC(OCc2ccc(Cl)cc2)[C@H](NC(=O)CNC(=N)N)[C@@H](OCc2ccc(Cl)cc2)[C@@H]1O (stereo partly drawn) [compound 37] | − (“−” indicates less than 50% inhibition at 10 μM) | − (“−” indicates less than 50% inhibition at 10 μM) | + (“+” indicates greater than 50% inhibition at 10 μM) | + (“+” indicates greater than 50% inhibition at 10 μM) | + (“+” indicates greater than 50% inhibition at 10 μM) | + (“+” indicates greater than 50% inhibition at 10 μM) | − (“−” indicates less than 50% inhibition at 10 μM) | − (“−” indicates less than 50% inhibition at 10 μM) | − (“−” indicates less than 50% inhibition at 10 μM) | − (“−” indicates less than 50% inhibition at 10 μM) | − (“−” indicates less than 50% inhibition at 10 μM)
5 | COC[C@H]1OC(OCc2ccc(Cl)cc2)[C@H](NC(=O)CCNC(=N)N)[C@@H](OCc2ccc(Cl)cc2)[C@@H]1O (stereo partly drawn) [compound 38] | − (“−” indicates less than 50% inhibition at 10 μM) | − (“−” indicates less than 50% inhibition at 10 μM) | − (“−” indicates less than 50% inhibition at 10 μM) | − (“−” indicates less than 50% inhibition at 10 μM) | + (“+” indicates greater than 50% inhibition at 10 μM) | + (“+” indicates greater than 50% inhibition at 10 μM) | − (“−” indicates less than 50% inhibition at 10 μM) | + (“+” indicates greater than 50% inhibition at 10 μM) | − (“−” indicates less than 50% inhibition at 10 μM) | − (“−” indicates less than 50% inhibition at 10 μM) | − (“−” indicates less than 50% inhibition at 10 μM)
6 | COC[C@H]1OC(OCc2ccc(Cl)cc2)[C@H](NC(=O)CCCNC(=N)N)[C@@H](OCc2ccc(Cl)cc2)[C@@H]1O (stereo partly drawn) [compound 39] | − (“−” indicates less than 50% inhibition at 10 μM) | − (“−” indicates less than 50% inhibition at 10 μM) | − (“−” indicates less than 50% inhibition at 10 μM) | − (“−” indicates less than 50% inhibition at 10 μM) | − (“−” indicates less than 50% inhibition at 10 μM) | + (“+” indicates greater than 50% inhibition at 10 μM) | − (“−” indicates less than 50% inhibition at 10 μM) | + (“+” indicates greater than 50% inhibition at 10 μM) | − (“−” indicates less than 50% inhibition at 10 μM) | − (“−” indicates less than 50% inhibition at 10 μM) | − (“−” indicates less than 50% inhibition at 10 μM)

— patent publication US20080009418A1, “Selective Inhibitors” (Alchemia LTD., priority 2004, published 2008)
